Test results: the NIST ThermoML archive (doi:10.1021/acs.jced.8b01097)

Columns and labels:
[1] = 85 kPa, Liquid; for viscosity: Concentric cylinders viscometry; for mass density: Vibrating tube method
[2] = xn = mol fraction of the nth substance listed; conditions: 85 kPa, Liquid; for viscosity: Concentric cylinders viscometry; for mass density: Vibrating tube method

CCC(C)O (stereo not drawn) [butan-2-ol]
[1]
Conditions | mass density [kg/m3] | viscosity [mPa·s]
293.15 K | 806.2 | 3.743
298.15 K | 802 | 3.101
303.15 K | 797.9 | 2.579
308.15 K | 793.6 | 2.162
313.15 K | 789.2 | 1.828
318.15 K | 784.7 | 1.559
323.15 K | 780.2 | 1.318

NCCCO [3-amino-1-propanol]
[1]
Conditions | mass density [kg/m3] | viscosity [mPa·s]
293.15 K | 987.8 | 37.33
298.15 K | 984.3 | 28.59
303.15 K | 980.3 | 22.31
308.15 K | 976.2 | 17.67
313.15 K | 972.3 | 14.21
318.15 K | 968.5 | 11.58
323.15 K | 964.9 | 9.546

CC(C)O [propan-2-ol] + CCC(C)O
[2], x2 = 0
Conditions | mass density [kg/m3] | viscosity [mPa·s]
293.15 K | 784.9 | 2.429
298.15 K | 780.7 | 2.095
303.15 K | 776.4 | 1.808
308.15 K | 772.1 | 1.567
313.15 K | 767.6 | 1.366
318.15 K | 763.1 | 1.195
323.15 K | 758.5 | 1.052

CCC(C)O (stereo not drawn) [butan-2-ol] + NCCCO
[2], x1 = 1
Conditions | mass density [kg/m3] | viscosity [mPa·s]
293.15 K | 806.2 | 3.743
298.15 K | 802 | 3.101
303.15 K | 797.9 | 2.579
308.15 K | 793.6 | 2.162
313.15 K | 789.2 | 1.828
318.15 K | 784.7 | 1.559
323.15 K | 780.2 | 1.318

CCCO [propan-1-ol]
[1]
Conditions | mass density [kg/m3] | viscosity [mPa·s]
293.15 K | 803.5 | 2.215
298.15 K | 799.4 | 1.97
303.15 K | 795.4 | 1.752
308.15 K | 791.3 | 1.563
313.15 K | 787.2 | 1.399
318.15 K | 783.1 | 1.255
323.15 K | 778.9 | 1.129

CC(C)O [propan-2-ol]
[1]
Conditions | mass density [kg/m3] | viscosity [mPa·s]
293.15 K | 784.9 | 2.429
298.15 K | 780.7 | 2.095
303.15 K | 776.4 | 1.808
308.15 K | 772.1 | 1.567
313.15 K | 767.6 | 1.366
318.15 K | 763.1 | 1.195
323.15 K | 758.5 | 1.052

CCCO [propan-1-ol] + CCC(C)O
[2], x2 = 0
Conditions | mass density [kg/m3] | viscosity [mPa·s]
293.15 K | 803.5 | 2.215
298.15 K | 799.4 | 1.97
303.15 K | 795.4 | 1.752
308.15 K | 791.3 | 1.563
313.15 K | 787.2 | 1.399
318.15 K | 783.1 | 1.255
323.15 K | 778.9 | 1.129
